Where two headings read alike, the source gives them in different places.
Experiments:
[1] = target: T1, PKCι (Homo sapiens, UniProt P41743); assay: Kinome profiler screen; type: biochemical; settings: at 20,000 nM inhibitor; kinase activity remaining
T1 construct: purchased Millipore KinaseProfiler

[2] = target: T2, Arg (Homo sapiens, UniProt P42684); assay: Kinome profiler screen; type: biochemical; settings: at 20,000 nM inhibitor; kinase activity remaining
T2 construct: purchased Millipore KinaseProfiler

[3] = target: T3, WNK2 (Homo sapiens, UniProt Q9Y3S1); assay: Kinome profiler screen; type: biochemical; settings: at 20,000 nM inhibitor; kinase activity remaining
T3 construct: purchased Millipore KinaseProfiler

[4] = target: T4, Syk (Homo sapiens, UniProt P43405); assay: Kinome profiler screen; type: biochemical; settings: at 20,000 nM inhibitor; kinase activity remaining
T4 construct: purchased Millipore KinaseProfiler

[5] = target: T5, Pim-1 (Homo sapiens, UniProt P11309); assay: Kinome profiler screen; type: biochemical; settings: at 20,000 nM inhibitor; kinase activity remaining
T5 construct: purchased Millipore KinaseProfiler

[6] = target: T6, PI3 Kinase (p110δ/p85α) (Homo sapiens, UniProt O00329); assay: Kinome profiler screen; type: biochemical; settings: at 20,000 nM inhibitor; kinase activity remaining
T6 construct: purchased Millipore KinaseProfiler

[7] = target: T7, PASK (Homo sapiens, UniProt Q96RG2); assay: Kinome profiler screen; type: biochemical; settings: at 20,000 nM inhibitor; kinase activity remaining
T7 construct: purchased Millipore KinaseProfiler

[8] = target: T8, MuSK (Homo sapiens, UniProt O15146); assay: Kinome profiler screen; type: biochemical; settings: at 20,000 nM inhibitor; kinase activity remaining
T8 construct: purchased Millipore KinaseProfiler

[9] = target: T9, PDGFRβ (Homo sapiens, UniProt P09619); assay: Kinome profiler screen; type: biochemical; settings: at 20,000 nM inhibitor; kinase activity remaining
T9 construct: purchased Millipore KinaseProfiler

[10] = tested on: contextual and cued learning; assay: Fear conditioning, Aβ42-infused mice; type: in vivo, C57BL/6J mice; settings: for cued learning: 24 hrs after contextual learning, control test; for contextual fear memory deficit: Aβ42-infused mice
[11] = target: T10, MLK1 (Homo sapiens, UniProt P80192); assay: Kinome profiler screen; type: biochemical; settings: at 20,000 nM inhibitor; kinase activity remaining
T10 construct: purchased Millipore KinaseProfiler

[12] = target: T11, ROCK-II(r) (Rattus norvegicus, UniProt Q62868); assay: Kinome profiler screen; type: biochemical; settings: at 20,000 nM inhibitor; kinase activity remaining
T11 construct: purchased Millipore KinaseProfiler

[13] = target: T12, IRAK4 (Homo sapiens, UniProt Q9NWZ3); assay: Kinome profiler screen; type: biochemical; settings: at 20,000 nM inhibitor; kinase activity remaining
T12 construct: purchased Millipore KinaseProfiler

[14] = target: T13, TLK2 (Homo sapiens, UniProt Q86UE8); assay: Kinome profiler screen; type: biochemical; settings: at 20,000 nM inhibitor; kinase activity remaining
T13 construct: purchased Millipore KinaseProfiler

[15] = target: T14, cSRC (Homo sapiens, UniProt P12931); assay: Kinome profiler screen; type: biochemical; settings: at 20,000 nM inhibitor; kinase activity remaining
T14 construct: purchased Millipore KinaseProfiler

[16] = target: T15, Arg(m) (Mus musculus, UniProt Q4JIM5); assay: Kinome profiler screen; type: biochemical; settings: at 20,000 nM inhibitor; kinase activity remaining
T15 construct: purchased Millipore KinaseProfiler

[17] = target: T16, DAPK1 (Homo sapiens, UniProt P53355); assay: Kinome profiler screen; type: biochemical; settings: at 20,000 nM inhibitor; kinase activity remaining
T16 construct: purchased Millipore KinaseProfiler

[18] = target: T17, IRAK1 (Homo sapiens, UniProt P51617); assay: Kinome profiler screen; type: biochemical; settings: at 20,000 nM inhibitor; kinase activity remaining
T17 construct: purchased Millipore KinaseProfiler

[19] = target: T18, CDK6/cyclinD3 (Homo sapiens, UniProt Q00534); assay: Kinome profiler screen; type: biochemical; settings: at 20,000 nM inhibitor; kinase activity remaining
T18 construct: purchased Millipore KinaseProfiler

[20] = target: T19, Rsk1 (Homo sapiens, UniProt Q15418); assay: Kinome profiler screen; type: biochemical; settings: at 20,000 nM inhibitor; kinase activity remaining
T19 construct: purchased Millipore KinaseProfiler

[21] = target: T20, Abl (Q252H) (Homo sapiens, UniProt P00519, Q252H); assay: Kinome profiler screen; type: biochemical; settings: at 20,000 nM inhibitor; kinase activity remaining
T20 construct: purchased Millipore KinaseProfiler

[22] = target: T21, Fer (Homo sapiens, UniProt P16591); assay: Kinome profiler screen; type: biochemical; settings: at 20,000 nM inhibitor; kinase activity remaining
T21 construct: purchased Millipore KinaseProfiler

[23] = target: T22, MRCKβ (Homo sapiens, UniProt Q9Y5S2); assay: Kinome profiler screen; type: biochemical; settings: at 20,000 nM inhibitor; kinase activity remaining
T22 construct: purchased Millipore KinaseProfiler

[24] = target: T23, KDR (Homo sapiens, UniProt P35968); assay: Kinome profiler screen; type: biochemical; settings: at 20,000 nM inhibitor; kinase activity remaining
T23 construct: purchased Millipore KinaseProfiler

[25] = target: T24, DCAMKL2 (Homo sapiens, UniProt Q8N568); assay: Kinome profiler screen; type: biochemical; settings: at 20,000 nM inhibitor; kinase activity remaining
T24 construct: purchased Millipore KinaseProfiler

[26] = target: T25, PAK2 (Homo sapiens, UniProt Q13177); assay: Kinome profiler screen; type: biochemical; settings: at 20,000 nM inhibitor; kinase activity remaining
T25 construct: purchased Millipore KinaseProfiler

[27] = target: T26, PI3 Kinase (p120γ) (Homo sapiens, UniProt P48736); assay: Kinome profiler screen; type: biochemical; settings: at 20,000 nM inhibitor; kinase activity remaining
T26 construct: purchased Millipore KinaseProfiler

[28] = target: T27, CDK2/cyclinE (Homo sapiens, UniProt P24941); assay: Kinome profiler screen; type: biochemical; settings: at 20,000 nM inhibitor; kinase activity remaining
T27 construct: purchased Millipore KinaseProfiler

[29] = target: T28, EGFR(T790M,L858R) (Homo sapiens, UniProt P00533, L858R/T790M); assay: Kinome profiler screen; type: biochemical; settings: at 20,000 nM inhibitor; kinase activity remaining
T28 construct: purchased Millipore KinaseProfiler

[30] = target: T29, Met (Homo sapiens, UniProt P08581); assay: Kinome profiler screen; type: biochemical; settings: at 20,000 nM inhibitor; kinase activity remaining
T29 construct: purchased Millipore KinaseProfiler

[31] = target: T30, PDGFRα(D842V) (Homo sapiens, UniProt P16234, D842V); assay: Kinome profiler screen; type: biochemical; settings: at 20,000 nM inhibitor; kinase activity remaining
T30 construct: purchased Millipore KinaseProfiler

[32] = target: T31, SRPK2 (Homo sapiens, UniProt P78362); assay: Kinome profiler screen; type: biochemical; settings: at 20,000 nM inhibitor; kinase activity remaining
T31 construct: purchased Millipore KinaseProfiler

[33] = target: T32, MSK1 (Homo sapiens, UniProt O75582); assay: Kinome profiler screen; type: biochemical; settings: at 20,000 nM inhibitor; kinase activity remaining
T32 construct: purchased Millipore KinaseProfiler

[34] = target: T33, PKG1α (Homo sapiens, UniProt Q13976); assay: Kinome profiler screen; type: biochemical; settings: at 20,000 nM inhibitor; kinase activity remaining
T33 construct: purchased Millipore KinaseProfiler

[35] = target: T34, PDGFRα(V561D) (Homo sapiens, UniProt P16234, V561D); assay: Kinome profiler screen; type: biochemical
T34 construct: purchased Millipore KinaseProfiler

[36] = target: T35, PAK5 (Homo sapiens, UniProt Q9P286); assay: Kinome profiler screen; type: biochemical; settings: at 20,000 nM inhibitor; kinase activity remaining
T35 construct: purchased Millipore KinaseProfiler

[37] = target: T36, HIPK1 (Homo sapiens, UniProt Q86Z02); assay: Kinome profiler screen; type: biochemical; settings: at 20,000 nM inhibitor; kinase activity remaining
T36 construct: purchased Millipore KinaseProfiler

[38] = target: T37, FAK (Homo sapiens, UniProt Q05397); assay: Kinome profiler screen; type: biochemical; settings: at 20,000 nM inhibitor; kinase activity remaining
T37 construct: purchased Millipore KinaseProfiler

[39] = target: T38, Met(Y1248H) (Homo sapiens, UniProt P08581, Y1230H); assay: Kinome profiler screen; type: biochemical; settings: at 20,000 nM inhibitor; kinase activity remaining
T38 construct: purchased Millipore KinaseProfiler

[40] = target: T39, MARK1 (Homo sapiens, UniProt Q9P0L2); assay: Kinome profiler screen; type: biochemical; settings: at 20,000 nM inhibitor; kinase activity remaining
T39 construct: purchased Millipore KinaseProfiler

[41] = target: T40, ZIPK (Homo sapiens, UniProt O43293); assay: Kinome profiler screen; type: biochemical; settings: at 20,000 nM inhibitor; kinase activity remaining
T40 construct: purchased Millipore KinaseProfiler

[42] = target: T41, Abl(T315I) (Homo sapiens, UniProt P00519, T315I); assay: Kinome profiler screen; type: biochemical; settings: at 20,000 nM inhibitor; kinase activity remaining
T41 construct: purchased Millipore KinaseProfiler

[43] = target: T42, Rsk4 (Homo sapiens, UniProt Q9UK32); assay: Kinome profiler screen; type: biochemical; settings: at 20,000 nM inhibitor; kinase activity remaining
T42 construct: purchased Millipore KinaseProfiler

T22 sequence (Q9Y5S2 whole entry): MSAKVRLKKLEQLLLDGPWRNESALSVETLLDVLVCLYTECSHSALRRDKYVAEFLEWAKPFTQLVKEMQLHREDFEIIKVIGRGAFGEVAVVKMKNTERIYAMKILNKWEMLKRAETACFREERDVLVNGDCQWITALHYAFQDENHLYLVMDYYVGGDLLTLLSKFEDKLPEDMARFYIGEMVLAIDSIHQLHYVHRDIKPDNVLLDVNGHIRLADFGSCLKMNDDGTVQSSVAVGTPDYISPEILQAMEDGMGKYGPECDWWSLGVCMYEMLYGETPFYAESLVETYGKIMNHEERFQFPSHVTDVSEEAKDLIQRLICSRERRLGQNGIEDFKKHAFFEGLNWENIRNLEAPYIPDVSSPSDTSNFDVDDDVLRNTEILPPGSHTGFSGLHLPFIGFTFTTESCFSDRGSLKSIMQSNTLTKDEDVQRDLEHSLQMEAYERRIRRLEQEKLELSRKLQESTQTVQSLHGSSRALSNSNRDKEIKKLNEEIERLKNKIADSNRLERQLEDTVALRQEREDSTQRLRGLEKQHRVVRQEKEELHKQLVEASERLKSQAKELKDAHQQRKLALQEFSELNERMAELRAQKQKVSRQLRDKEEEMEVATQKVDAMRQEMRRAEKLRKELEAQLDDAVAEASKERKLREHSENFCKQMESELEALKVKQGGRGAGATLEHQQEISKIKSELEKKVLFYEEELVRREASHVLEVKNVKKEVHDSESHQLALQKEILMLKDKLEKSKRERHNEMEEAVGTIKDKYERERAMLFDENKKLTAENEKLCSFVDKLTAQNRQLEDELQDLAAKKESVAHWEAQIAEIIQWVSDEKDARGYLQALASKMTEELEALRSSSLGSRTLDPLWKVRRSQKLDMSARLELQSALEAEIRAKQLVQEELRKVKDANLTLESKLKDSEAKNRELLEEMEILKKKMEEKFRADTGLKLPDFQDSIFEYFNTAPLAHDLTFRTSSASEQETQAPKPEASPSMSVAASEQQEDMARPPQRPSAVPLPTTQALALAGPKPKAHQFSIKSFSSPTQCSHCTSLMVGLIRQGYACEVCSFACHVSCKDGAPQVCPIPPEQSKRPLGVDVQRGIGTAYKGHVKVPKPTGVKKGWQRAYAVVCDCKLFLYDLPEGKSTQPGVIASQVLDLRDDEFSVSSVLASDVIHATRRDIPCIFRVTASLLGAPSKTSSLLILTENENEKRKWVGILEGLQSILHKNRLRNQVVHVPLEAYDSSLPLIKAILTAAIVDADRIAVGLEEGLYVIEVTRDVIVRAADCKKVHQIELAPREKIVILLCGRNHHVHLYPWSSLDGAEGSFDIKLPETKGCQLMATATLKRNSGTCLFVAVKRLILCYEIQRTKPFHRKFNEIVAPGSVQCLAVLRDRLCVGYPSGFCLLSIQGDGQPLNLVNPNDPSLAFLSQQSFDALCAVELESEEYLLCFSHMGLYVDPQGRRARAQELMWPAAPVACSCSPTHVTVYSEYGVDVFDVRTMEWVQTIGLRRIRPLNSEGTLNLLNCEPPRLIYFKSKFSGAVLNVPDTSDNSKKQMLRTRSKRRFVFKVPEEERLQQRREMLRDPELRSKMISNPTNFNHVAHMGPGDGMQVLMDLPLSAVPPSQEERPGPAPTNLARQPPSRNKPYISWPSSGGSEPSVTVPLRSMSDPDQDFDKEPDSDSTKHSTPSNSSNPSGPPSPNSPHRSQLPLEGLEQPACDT
T21 sequence (P16591 whole entry): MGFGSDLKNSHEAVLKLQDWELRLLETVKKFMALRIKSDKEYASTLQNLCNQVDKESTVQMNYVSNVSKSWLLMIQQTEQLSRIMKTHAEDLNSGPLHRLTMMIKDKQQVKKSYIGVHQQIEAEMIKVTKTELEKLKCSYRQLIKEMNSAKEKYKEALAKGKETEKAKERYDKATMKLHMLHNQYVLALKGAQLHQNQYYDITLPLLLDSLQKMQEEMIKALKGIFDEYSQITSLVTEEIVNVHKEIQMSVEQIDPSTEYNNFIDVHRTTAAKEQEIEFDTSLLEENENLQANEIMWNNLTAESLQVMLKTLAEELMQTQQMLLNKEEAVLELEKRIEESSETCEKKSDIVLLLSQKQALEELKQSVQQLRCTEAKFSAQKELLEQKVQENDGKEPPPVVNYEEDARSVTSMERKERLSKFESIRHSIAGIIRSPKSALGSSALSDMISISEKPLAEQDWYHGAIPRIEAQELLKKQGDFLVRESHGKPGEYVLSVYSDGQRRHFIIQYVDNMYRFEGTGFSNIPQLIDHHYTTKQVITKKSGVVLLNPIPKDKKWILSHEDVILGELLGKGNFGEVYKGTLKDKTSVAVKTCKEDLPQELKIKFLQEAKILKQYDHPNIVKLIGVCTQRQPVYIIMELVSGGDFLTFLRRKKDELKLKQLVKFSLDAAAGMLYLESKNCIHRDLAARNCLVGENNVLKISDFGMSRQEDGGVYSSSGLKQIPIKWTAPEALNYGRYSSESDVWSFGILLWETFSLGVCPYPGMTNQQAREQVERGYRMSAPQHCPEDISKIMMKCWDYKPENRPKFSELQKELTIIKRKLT
T7 sequence (Q96RG2 whole entry): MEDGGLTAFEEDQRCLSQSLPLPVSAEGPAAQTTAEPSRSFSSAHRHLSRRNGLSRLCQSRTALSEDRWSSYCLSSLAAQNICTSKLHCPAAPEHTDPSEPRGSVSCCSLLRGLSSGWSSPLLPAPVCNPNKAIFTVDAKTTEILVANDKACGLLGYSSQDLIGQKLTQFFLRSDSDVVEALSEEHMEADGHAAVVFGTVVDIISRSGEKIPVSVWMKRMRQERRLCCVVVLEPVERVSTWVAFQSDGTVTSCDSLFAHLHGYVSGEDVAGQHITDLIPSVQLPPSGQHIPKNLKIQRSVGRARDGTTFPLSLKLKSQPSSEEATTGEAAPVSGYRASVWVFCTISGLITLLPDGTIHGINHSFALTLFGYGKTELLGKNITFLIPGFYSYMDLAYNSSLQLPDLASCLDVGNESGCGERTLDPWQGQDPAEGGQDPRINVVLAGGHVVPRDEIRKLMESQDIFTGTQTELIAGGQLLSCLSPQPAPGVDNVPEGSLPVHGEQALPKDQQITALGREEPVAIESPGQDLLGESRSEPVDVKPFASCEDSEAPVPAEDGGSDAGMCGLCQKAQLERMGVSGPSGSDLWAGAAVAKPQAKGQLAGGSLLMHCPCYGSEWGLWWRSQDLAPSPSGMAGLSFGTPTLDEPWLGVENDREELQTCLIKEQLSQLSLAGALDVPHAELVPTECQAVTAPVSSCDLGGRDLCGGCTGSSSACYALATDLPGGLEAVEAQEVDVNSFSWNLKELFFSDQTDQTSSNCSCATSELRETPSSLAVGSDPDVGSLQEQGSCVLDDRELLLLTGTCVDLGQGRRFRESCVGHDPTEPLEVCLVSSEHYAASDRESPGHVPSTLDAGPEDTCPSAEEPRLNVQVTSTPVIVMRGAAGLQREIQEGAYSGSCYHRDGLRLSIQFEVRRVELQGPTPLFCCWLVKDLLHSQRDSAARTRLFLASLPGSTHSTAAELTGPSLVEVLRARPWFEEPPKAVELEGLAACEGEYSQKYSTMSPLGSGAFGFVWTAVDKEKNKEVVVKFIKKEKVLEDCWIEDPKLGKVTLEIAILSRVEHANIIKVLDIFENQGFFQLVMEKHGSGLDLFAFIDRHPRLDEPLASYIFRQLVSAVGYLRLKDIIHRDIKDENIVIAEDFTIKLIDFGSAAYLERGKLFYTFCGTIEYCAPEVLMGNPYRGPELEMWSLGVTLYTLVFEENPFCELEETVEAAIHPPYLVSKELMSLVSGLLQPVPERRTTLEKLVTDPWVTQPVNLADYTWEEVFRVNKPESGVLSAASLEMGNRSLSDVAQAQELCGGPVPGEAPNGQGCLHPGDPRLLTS
T36 sequence (Q86Z02 whole entry): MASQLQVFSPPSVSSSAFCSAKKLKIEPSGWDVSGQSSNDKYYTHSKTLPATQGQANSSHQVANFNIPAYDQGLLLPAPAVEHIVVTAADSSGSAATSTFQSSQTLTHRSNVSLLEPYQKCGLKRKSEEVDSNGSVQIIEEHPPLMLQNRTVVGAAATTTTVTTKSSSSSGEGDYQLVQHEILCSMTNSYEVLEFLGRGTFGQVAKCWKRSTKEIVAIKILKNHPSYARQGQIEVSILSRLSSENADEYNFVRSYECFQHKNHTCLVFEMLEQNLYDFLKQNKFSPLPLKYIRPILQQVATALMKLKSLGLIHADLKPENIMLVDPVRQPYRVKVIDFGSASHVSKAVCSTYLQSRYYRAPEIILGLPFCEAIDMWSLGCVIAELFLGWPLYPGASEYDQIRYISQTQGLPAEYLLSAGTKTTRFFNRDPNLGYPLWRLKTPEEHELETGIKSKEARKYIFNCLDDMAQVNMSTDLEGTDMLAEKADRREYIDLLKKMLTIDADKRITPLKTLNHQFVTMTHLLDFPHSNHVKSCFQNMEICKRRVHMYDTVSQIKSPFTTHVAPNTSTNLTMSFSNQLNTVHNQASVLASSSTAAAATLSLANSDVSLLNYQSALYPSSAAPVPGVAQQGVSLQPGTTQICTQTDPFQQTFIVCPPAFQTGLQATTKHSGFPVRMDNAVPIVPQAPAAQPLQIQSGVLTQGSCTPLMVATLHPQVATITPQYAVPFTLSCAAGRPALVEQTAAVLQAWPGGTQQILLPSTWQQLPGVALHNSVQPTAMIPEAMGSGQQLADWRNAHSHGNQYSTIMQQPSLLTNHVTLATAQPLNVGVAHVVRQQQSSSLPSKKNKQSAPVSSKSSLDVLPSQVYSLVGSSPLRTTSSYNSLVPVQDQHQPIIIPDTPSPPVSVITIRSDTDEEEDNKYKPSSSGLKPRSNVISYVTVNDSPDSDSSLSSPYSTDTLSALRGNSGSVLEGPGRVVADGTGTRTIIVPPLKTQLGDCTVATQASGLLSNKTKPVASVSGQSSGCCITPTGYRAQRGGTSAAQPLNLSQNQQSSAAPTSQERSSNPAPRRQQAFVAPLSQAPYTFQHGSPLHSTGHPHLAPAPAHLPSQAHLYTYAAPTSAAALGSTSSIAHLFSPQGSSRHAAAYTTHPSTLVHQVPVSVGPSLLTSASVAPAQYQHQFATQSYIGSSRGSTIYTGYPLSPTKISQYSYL

In the case of `CN(C)c1cc(-c2ccncc2)c(-c2ccc3ccccc3c2)nn1` [MW108, N, N-dimethyl-6-(naphthalen-2-yl)-5-(pyridin-4-yl)pyridazin-3-amine], the activity at 20 µM [1] was 92%, the activity at 20 µM [2] was 95% and the activity at 20 µM [3] was 101%. For the same molecule, the activity at 20 µM [4] was 88%, the activity at 20 µM [5] was 103% and the activity at 20 µM [6] was 100%. For the same molecule, the activity at 20 µM [7] was 88%, the activity at 20 µM [8] was 104% and the activity at 20 µM [9] was 99%. For the same molecule, the “cued learning” value [10] was “No difference was detected between groups”, the “contextual fear memory deficit” value [10] was “ameliorated the contextual fear memory deficit” and the activity at 20 µM [11] was 98%. It also gave an activity at 20 µM [12] of 97%, an activity at 20 µM [13] of 91% and an activity at 20 µM [14] of 99%. It also gave an activity at 20 µM [15] of 125%, an activity at 20 µM [16] of 86% and an activity at 20 µM [17] of 92%. It also gave an activity at 20 µM [18] of 97%, an activity at 20 µM [19] of 85% and an activity at 20 µM [20] of 93%. The activity at 20 µM [21] was 105%, the activity at 20 µM [22] was 97% and the activity at 20 µM [23] was 99%. It also gave an activity at 20 µM [24] of 87%, an activity at 20 µM [25] of 109% and an activity at 20 µM [26] of 103%. For the same molecule, the activity at 20 µM [27] was 101%, the activity at 20 µM [28] was 108% and the activity at 20 µM [29] was 40%. The activity at 20 µM [30] was 118%, the activity at 20 µM [31] was 89% and the activity at 20 µM [32] was 95%. It also gave an activity at 20 µM [33] of 97%, an activity at 20 µM [34] of 93% and an activity at 20 µM [35] of 114%. For the same molecule, the activity at 20 µM [36] was 102%, the activity at 20 µM [37] was 98% and the activity at 20 µM [38] was 95%. For the same molecule, the activity at 20 µM [39] was 88%, the activity at 20 µM [40] was 113% and the activity at 20 µM [41] was 93%. The activity at 20 µM [42] was 91% and the activity at 20 µM [43] was 96%.

For `CN(C)c1cc(-c2ccncc2)c(-c2cccc3ccccc23)nn1` [MW181, N,N-dimethyl-6-(naphthalen-1-yl)-5-(pyridin-4-yl)pyridazin-3-amine], the activity at 20 µM [1] was 82%, the activity at 20 µM [2] was 84% and the activity at 20 µM [3] was 92%. The activity at 20 µM [4] was 105%, the activity at 20 µM [5] was 107% and the activity at 20 µM [6] was 101%. For the same molecule, the activity at 20 µM [7] was 97%, the activity at 20 µM [8] was 102% and the activity at 20 µM [9] was 99%. The “cued learning” value [10] was “No difference was detected between groups”, the “contextual fear memory deficit” value [10] was “ameliorated the contextual fear memory deficit” and the activity at 20 µM [11] was 95%. The activity at 20 µM [12] was 92%, the activity at 20 µM [13] was 100% and the activity at 20 µM [14] was 107%. It also gave an activity at 20 µM [15] of 101%, an activity at 20 µM [16] of 96% and an activity at 20 µM [17] of 99%. For the same molecule, the activity at 20 µM [18] was 102%, the activity at 20 µM [19] was 103% and the activity at 20 µM [20] was 98%. For the same molecule, the activity at 20 µM [21] was 100%, the activity at 20 µM [22] was 92% and the activity at 20 µM [23] was 115%. It also gave an activity at 20 µM [24] of 97%, an activity at 20 µM [25] of 101% and an activity at 20 µM [26] of 101%. It also gave an activity at 20 µM [27] of 100%, an activity at 20 µM [28] of 118% and an activity at 20 µM [29] of 80%. For the same molecule, the activity at 20 µM [30] was 112%, the activity at 20 µM [31] was 104% and the activity at 20 µM [32] was 109%. The activity at 20 µM [33] was 106%, the activity at 20 µM [34] was 97% and the activity at 20 µM ([35]; at 20,000 nM inhibitor, kinase activity remaining, read-out: % Activity) was 103%. For the same molecule, the activity at 20 µM [36] was 104%, the activity at 20 µM [37] was 107% and the activity at 20 µM [38] was 102%. For the same molecule, the activity at 20 µM [39] was 103%, the activity at 20 µM [40] was 102% and the activity at 20 µM [41] was 106%. The activity at 20 µM [42] was 107% and the activity at 20 µM [43] was 105%.

Source: article PMC3694096, “Development of Novel In Vivo Chemical Probes to Address CNS Protein Kinase Involvement in Synaptic Dysfunction” (PLoS ONE, 2013)
